Values quoted from earlier work, collected in patent US20220117866A1, “ANHYDROUS ALCOHOL-FREE SILKY FRAGRANCE FORMULATION” (AKI, Inc., priority 2020, published 2022).
Structures can show the parent of a compound that is named as a salt.

System: laboratory animals
Conditions: oral, dermal and inhalation routes

For `CCOC(=O)CC(O)(CC(=O)OCC)C(=O)OCC` [Triethyl Citrate, Triethyl 2-hydroxypropane-1,2,3-tricarboxylate], the acute toxicity is listed as “low”.
